Earlier results in PMC4914392 (Bioorganic & medicinal chemistry, 2016).

Settings: ref [17]

Nc1nccc2c1nnn2[C@@H]1O[C@H](CO)[C@@H](O)[C@H]1O [Compound 4, 8-aza-3-deazaadenosine]
Fluorescence emission λmax (H2O): 430 nm | Stokes shift (H2O): 140 nm
